Experimental data published in the supplement of paper PMC10307832.

How the values were obtained:
Assay in all cases: relative viability (nuclei count vs DMSO), 5 days (fraction); higher = more cells survive
KN-93 = compound: CN(C/C=C/C1=CC=C(C=C1)Cl)CC2=CC=CC=C2N(CCO)S(=O)(=O)C3=CC=C(C=C3)OC [KN-93]
How it was run: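 Lung cancer cell lines in 1536-well plates were kept overnight at 37 °C, then pinned with five library-drug doses (not always all listed) spaced by √10 on vehicle-anchored plates. After 5 days without medium change, cells were fixed, permeabilised and Hoechst-stained in one step, imaged at 4×, and nuclei were counted with MetaXpress. Viability is treated-well nuclei divided by vehicle-well nuclei, taken as the median over plates. Plates passed only with control CV below 25% and at least one doubling.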

KN-93 + Bortezomib = compound: CN(C/C=C/C1=CC=C(C=C1)Cl)CC2=CC=CC=C2N(CCO)S(=O)(=O)C3=CC=C(C=C3)OC [KN-93] + CC(C)C[C@H](NC(=O)[C@H](Cc1ccccc1)NC(=O)c1cnccn1)B(O)O [Bortezomib] (partner 0.002 µM)
How it was run: (§1)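 Five library-drug doses in √10 steps were combined with a fixed anchor-drug dose, or a single drug was given alone, by pin tool to lung cancer cell lines in 1536-well plates the day after seeding. Nuclei were stained and counted after 5 days. Relative viability is the nuclei count in treated wells over that in vehicle wells, taken as the median of duplicate plates.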

KN-93 + Pictilisib = compound: CN(C/C=C/C1=CC=C(C=C1)Cl)CC2=CC=CC=C2N(CCO)S(=O)(=O)C3=CC=C(C=C3)OC [KN-93] + CS(=O)(=O)N1CCN(Cc2cc3nc(-c4cccc5[nH]ncc45)nc(N4CCOCC4)c3s2)CC1 [Pictilisib] (partner 1 µM)
How it was run: as §1

KN-93 + Navitoclax = compound: CN(C/C=C/C1=CC=C(C=C1)Cl)CC2=CC=CC=C2N(CCO)S(=O)(=O)C3=CC=C(C=C3)OC [KN-93] + CC1(C)CCC(c2ccc(Cl)cc2)=C(CN2CCN(c3ccc(C(=O)NS(=O)(=O)c4ccc(N[C@H](CCN5CCOCC5)CSc5ccccc5)c(S(=O)(=O)C(F)(F)F)c4)cc3)CC2)C1 [Navitoclax] (partner 0.5 µM)
How it was run: as §1

KN-93 + Foretinib = compound: CN(C/C=C/C1=CC=C(C=C1)Cl)CC2=CC=CC=C2N(CCO)S(=O)(=O)C3=CC=C(C=C3)OC [KN-93] + COc1cc2c(Oc3ccc(NC(=O)C4(C(=O)Nc5ccc(F)cc5)CC4)cc3F)ccnc2cc1OCCCN1CCOCC1 [Foretinib] (partner 0.25 µM)
How it was run: as §1

KN-93 + Olaparib = compound: CN(C/C=C/C1=CC=C(C=C1)Cl)CC2=CC=CC=C2N(CCO)S(=O)(=O)C3=CC=C(C=C3)OC [KN-93] + O=C(c1cc(Cc2n[nH]c(=O)c3ccccc23)ccc1F)N1CCN(C(=O)C2CC2)CC1 [Olaparib] (partner 8 µM)
How it was run: as §1

KN-93 + Lapatinib = compound: CN(C/C=C/C1=CC=C(C=C1)Cl)CC2=CC=CC=C2N(CCO)S(=O)(=O)C3=CC=C(C=C3)OC [KN-93] + CS(=O)(=O)CCNCc1ccc(-c2ccc3ncnc(Nc4ccc(OCc5cccc(F)c5)c(Cl)c4)c3c2)o1 [Lapatinib] (partner 2 µM)
How it was run: as §1

KN-93 + Crizotinib = compound: CN(C/C=C/C1=CC=C(C=C1)Cl)CC2=CC=CC=C2N(CCO)S(=O)(=O)C3=CC=C(C=C3)OC [KN-93] + C[C@@H](Oc1cc(-c2cnn(C3CCNCC3)c2)cnc1N)c1c(Cl)ccc(F)c1Cl [Crizotinib] (partner 1 µM)
How it was run: as §1

KN-93 + Linsitinib = compound: CN(C/C=C/C1=CC=C(C=C1)Cl)CC2=CC=CC=C2N(CCO)S(=O)(=O)C3=CC=C(C=C3)OC [KN-93] + C[C@]1(O)C[C@@H](c2nc(-c3ccc4ccc(-c5ccccc5)nc4c3)c3c(N)nccn32)C1 [Linsitinib] (partner 1 µM)
How it was run: as §1

KN-93 + Alpelisib = compound: CN(C/C=C/C1=CC=C(C=C1)Cl)CC2=CC=CC=C2N(CCO)S(=O)(=O)C3=CC=C(C=C3)OC [KN-93] + Cc1nc(NC(=O)N2CCC[C@H]2C(N)=O)sc1-c1ccnc(C(C)(C)C(F)(F)F)c1 [Alpelisib] (partner 2 µM)
How it was run: as §1

NCI-H1299
relative viability (KN-93; 0.08 µM): 1.01
relative viability (KN-93; 0.253 µM): 1.1
relative viability (KN-93; 2.53 µM): 1.04
relative viability (KN-93; 8 µM): 0.796
relative viability (KN-93 + Bortezomib; first compound 0.08 µM): 0.969
relative viability (KN-93 + Bortezomib; first compound 0.253 µM): 1.01
relative viability (KN-93 + Bortezomib; first compound 2.53 µM): 1.05
relative viability (KN-93 + Bortezomib; first compound 8 µM): 0.969
relative viability (KN-93 + Pictilisib; first compound 0.253 µM): 1.03
relative viability (KN-93 + Pictilisib; first compound 2.53 µM): 0.656
relative viability (KN-93 + Pictilisib; first compound 8 µM): 0.267
relative viability (KN-93 + Navitoclax; first compound 0.08 µM): 1.07
relative viability (KN-93 + Navitoclax; first compound 0.253 µM): 1.04
relative viability (KN-93 + Navitoclax; first compound 2.53 µM): 1.11
relative viability (KN-93 + Navitoclax; first compound 8 µM): 1.02
relative viability (KN-93 + Foretinib; first compound 0.08 µM): 1.12
relative viability (KN-93 + Foretinib; first compound 0.253 µM): 1.13
relative viability (KN-93 + Foretinib; first compound 2.53 µM): 1.14
relative viability (KN-93 + Foretinib; first compound 8 µM): 0.904
relative viability (KN-93 + Olaparib; first compound 0.08 µM): 0.941
relative viability (KN-93 + Olaparib; first compound 0.253 µM): 1.06
relative viability (KN-93 + Olaparib; first compound 2.53 µM): 1
relative viability (KN-93 + Olaparib; first compound 8 µM): 0.594
relative viability (KN-93 + Lapatinib; first compound 0.08 µM): 0.992
relative viability (KN-93 + Lapatinib; first compound 0.253 µM): 1.04
relative viability (KN-93 + Lapatinib; first compound 2.53 µM): 0.952
relative viability (KN-93 + Lapatinib; first compound 8 µM): 0.708
relative viability (KN-93 + Crizotinib; first compound 0.08 µM): 0.885
relative viability (KN-93 + Crizotinib; first compound 0.253 µM): 1.14
relative viability (KN-93 + Crizotinib; first compound 2.53 µM): 0.891
relative viability (KN-93 + Crizotinib; first compound 8 µM): 0.514
relative viability (KN-93 + Linsitinib; first compound 0.08 µM): 0.959
relative viability (KN-93 + Linsitinib; first compound 0.253 µM): 1.22
relative viability (KN-93 + Linsitinib; first compound 2.53 µM): 1.02
relative viability (KN-93 + Linsitinib; first compound 8 µM): 0.861
relative viability (KN-93 + Alpelisib; first compound 0.08 µM): 0.951
relative viability (KN-93 + Alpelisib; first compound 0.253 µM): 1.15
relative viability (KN-93 + Alpelisib; first compound 2.53 µM): 1.09
relative viability (KN-93 + Alpelisib; first compound 8 µM): 1.07
